Reference: patent US20230346831A1, “METHODS FOR TREATING […] USING LOW DOSE CARBON MONOXIDE” (priority 2020, published 2023)
Values joined by “and” are separate entries in the source; they are usually repeats but may differ in a detail not shown here. Equal values may be shown once.

Tested on: MDA-MB-231/TGL cells
Test: metabolomic assay (polar metabolite profiling, mass spectrometry)
Format: cell-based, human
Description: Cells were seeded in a 10 cm cell culture plate with DMEM containing 10% FBS, 0.2 mM L-glutamine and 1% penicillin/streptomycin. After 16 hours of incubation, metabolites were extracted from the cells using 80% methanol. The remaining steps were carried out with no change according to the methods of Goncalves et al, PNAS, 115:4, E743-E752 (2018). All data analyses were done using MetaboAnalyst.
7 × 10^6 cells were seeded in 10-cm cell culture plates with DMEM containing 10% FBS, 0.2 mM L-glutamine and 1% penicillin/streptomycin. Additionally, MCF7/TGL/pQ was cultured in media containing 0.5 µgml^-1 puromycin and 25 mM HEPES. After 16 hours of incubation, metabolites were extracted from the cells using 80% methanol. The remaining steps were carried out by Weill Cornell Medicine Proteomics and Metabolomics Core Facility according to M. D. Goncalves et al., Proc Natl Acad Sci USA 115, E743-E752 (2018). All data analyses were done using MetaboAnalyst 4.0 (www.metaboanalyst.ca/).
To investigate whether 250 ppm CO mimics hypoxia, the HiF1α protein levels were examined in CO treated MCF7/TGL and MDA-MB-231/TGL cells. […] To determine whether 250 ppm CO affects metabolism, polar metabolites were profiled using two breast cancer cell lines, MCF7/TGL and MDA-MB-231/TGL (FIGS. 7-9).

[1] = MDA-MB-231/TGL cells treated with CO (250 ppm), replicates CO 1-3

[C-]#[O+] [CO, Carbon monoxide]
cis-aconitic acid (MCF7/TGL and MDA-MB-231/TGL cells, 250 ppm CO, 16 hours): significantly downregulated | Peak Height of metabolite intensity: 2-Hydroxycaproic acid (HMDB01624) [1]: 244,811 and 833,959 and 281,142 | Peak Height of metabolite intensity: 2-Hydroxyvaleric acid (HMDB01863) [1]: 621,532 and 904,968 and 786,820 | Peak Height of metabolite intensity: 2-Ketobutyric acid (HMDB00005) [1]: 5,289,178 and 6,027,442 and 5,724,353 | Peak Height of metabolite intensity: 2-Ketohexanoic acid (HMDB01864) [1]: 21,644,820 and 23,261,950 | Peak Height of metabolite intensity: 3-Hydroxyhippuric acid (HMDB06116) [1]: 67,709 and 54,023 and 55,195 | Peak Height of metabolite intensity: 3-Hydroxymethylglutaric acid (HMDB00355) [1]: 20,353,060 and 19,480,200 and 19,066,660 | Peak Height of metabolite intensity: 3-Phosphoglyceric acid (HMDB00807) [1]: 2,076,132 and 820,562 and 843,315 | Peak Height of metabolite intensity: 3-hydroxyhexadecanoic acid (HMDB61658) [1]: 119,550 and 182,677 and 362,311 | Peak Height of metabolite intensity: 4-Acetamidobutanoic acid (HMDB03681) [1]: 438,862 and 501,312 and 487,324 | Peak Height of metabolite intensity: 4-Hydroxybenzaldehyde (HMDB11718) [1]: 1,623,875 and 1,610,244 and 2,163,467 | Peak Height of metabolite intensity: 5-Adenosylhomocysteine (HMDB00939) [1]: 502,295 and 543,231 and 555,202 | Peak Height of metabolite intensity: 5-Thymidylic acid (HMDB01227) [1]: 1,061,384 and 1,368,086 and 1,260,084 | Peak Height of metabolite intensity: 5′-Methylthioadenosine (HMDB01173) [1]: 1,678,515 and 1,980,683 and 3,013,280 | Peak Height of metabolite intensity: 6-Phosphogluconic acid (HMDB01316) [1]: 394,956 and 515,553 and 654,253 | Peak Height of metabolite intensity: 7-Methylguanosine (HMDB01107) [1]: 25,667 and 34,657 and 32,703 | Peak Height of metabolite intensity: (R)-3-Hydroxydecanoic acid (HMDB10725) [1]: 88,715 and 193,751 and 99,729 | Peak Height of metabolite intensity: ADP (HMDB01341) [1]: 4,962,730 and 5,529,189 and 5,002,783 | Peak Height of metabolite intensity: ADP-glucose (HMDB06557) [1]: 84,781 and 90,192 and 99,689 | Peak Height of metabolite intensity: AICAR (HMDB01517) [1]: 32,080 and 59,426 | Peak Height of metabolite intensity: Acetylcholine (HMDB00895) [1]: 34,254,070 and 37,448,230 and 42,218,910 | Peak Height of metabolite intensity: Acetylcysteine (HMDB01890) [1]: 3,133,666 and 3,527,413 and 3,894,968 | Peak Height of metabolite intensity: Adenine (HMDB00034) [1]: 1,219,554 and 812,836 and 907,390 | Peak Height of metabolite intensity: Adenosine (HMDB00050) [1]: 18,973,870 and 624,270 and 424,559 | Peak Height of metabolite intensity: Adenosine monophosphate (HMDB00045) [1]: 6,997,849 and 8,959,282 and 6,609,897 | Peak Height of metabolite intensity: Adenosine triphosphate (HMDB00538) [1]: 7,254,237 and 6,217,538 and 7,426,501 | Peak Height of metabolite intensity: Allantoic acid (HMDB01209) [1]: 66,783 and 51,760 and 61,927 | Peak Height of metabolite intensity: Allantoin (HMDB00462) [1]: 1,362,548 and 1,445,842 and 1,605,951 | Peak Height of metabolite intensity: Alpha-Lactose (HMDB00186) [1]: 636,775 and 666,969 and 547,770 | Peak Height of metabolite intensity: Aminoadipic acid (HMDB00510) [1]: 5,352,894 and 5,983,553 and 6,501,110 | Peak Height of metabolite intensity: Arachidonic acid (HMDB01043) [1]: 219,569 and 129,238 and 117,457 | Peak Height of metabolite intensity: Argininosuccinic acid (HMDB00052) [1]: 397,796 and 561,328 and 632,101 | Peak Height of metabolite intensity: Asymmetric dimethylarginine (HMDB01539) [1]: 5,492,503 and 6,220,486 and 6,753,139 | Peak Height of metabolite intensity: Betaine (HMDB00043) [1]: 126,207,200 and 122,297,900 and 134,080,700 | Peak Height of metabolite intensity: Biotin (HMDB00030) [1]: 28,122 and 15,310 | Peak Height of metabolite intensity: CDP (HMDB01546) [1]: 536,936 and 604,322 and 492,208 | Peak Height of metabolite intensity: CDP-Ethanolamine (HMDB01564) [1]: 100,228 and 130,601 and 162,582 | Peak Height of metabolite intensity: Caprylic acid (HMDB00482) [1]: 470,899 and 477,590 and 472,338 | Peak Height of metabolite intensity: Carnosine (HMDB00033) [1]: 2,256,265 and 2,245,049 and 2,446,163 | Peak Height of metabolite intensity: Choline (HMDB00097) [1]: 108,427,800 and 109,880,900 and 111,858,100 | Peak Height of metabolite intensity: Citicoline (HMDB01413) [1]: 361,538 and 444,892 and 574,461 | Peak Height of metabolite intensity: Citric acid (HMDB00094) [1]: 74,805,210 and 82,630,710 and 89,689,600 | Peak Height of metabolite intensity: Citrulline (HMDB00904) [1]: 15,240,380 and 14,266,830 and 19,605,850 | Peak Height of metabolite intensity: Coenzyme A (HMDB01423) [1]: 109,174 and 125,366 and 106,848 | Peak Height of metabolite intensity: Creatine (HMDB00064) [1]: 123,445,200 and 119,145,800 and 129,072,700 | Peak Height of metabolite intensity: Creatinine (HMDB00562) [1]: 23,236,710 and 23,501,360 and 25,483,820 | Peak Height of metabolite intensity: Cytidine (HMDB00089) [1]: 225,855 and 258,465 and 227,521 | Peak Height of metabolite intensity: Cytidine monophosphate (HMDB00095) [1]: 724,977 and 871,719 and 625,602 | Peak Height of metabolite intensity: Cytidine triphosphate (HMDB00082) [1]: 183,937 and 215,682 and 295,169 | Peak Height of metabolite intensity: D-2,3-Dihydroxypropanoic acid (HMDB31818) [1]: 2,140,143 and 2,437,835 and 2,431,980 | Peak Height of metabolite intensity: D-2-Hydroxyglutaric acid (HMDB00606) [1]: 3,167,321 and 3,985,443 and 4,584,429 | Peak Height of metabolite intensity: D-Arabitol (HMDB00568) [1]: 3,445,547 and 3,545,938 and 4,135,015 | Peak Height of metabolite intensity: D-Fructose (HMDB00660) [1]: 6,135,849 and 6,547,945 and 7,210,193 | Peak Height of metabolite intensity: D-Glucose (HMDB00122) [1]: 36,851,430 and 39,288,740 and 42,369,140 | Peak Height of metabolite intensity: D-Glyceraldehyde 3-phosphate (HMDB01112) [1]: 6,590,523 and 2,998,173 and 3,562,678 | Peak Height of metabolite intensity: D-Ribose 5-phosphate (HMDB01548) [1]: 624,479 and 581,839 and 786,584 | Peak Height of metabolite intensity: D-Ribose (HMDB00283) [1]: 2,183,962 and 2,605,392 and 2,639,392 | Peak Height of metabolite intensity: D-Sedoheptulose 7-phosphate (HMDB01068) [1]: 561,321 and 572,202 and 625,243 | Peak Height of metabolite intensity: DL-O-Phosphoserine (HMDB01721) [1]: 185,294 and 163,584 and 141,059 | Peak Height of metabolite intensity: Deoxyinosine (HMDB00071) [1]: 8,871 and 6,834 and 15,777 | Peak Height of metabolite intensity: Deoxyribose 5-phosphate (HMDB01031) [1]: 50,751 and 42,917 and 52,112 | Peak Height of metabolite intensity: Deoxyuridine (HMDB00012) [1]: 40,015 and 22,277 and 25,003 | Peak Height of metabolite intensity: Dimethylglycine (HMDB00092) [1]: 10,914,430 and 13,334,130 and 17,506,690 | Peak Height of metabolite intensity: Erythritol (HMDB02994) [1]: 598,716 and 590,438 and 628,349 | Peak Height of metabolite intensity: Fructose 1,6-bisphosphate (HMDB01058) [1]: 10,176,490 and 12,986,490 and 13,433,710 | Peak Height of metabolite intensity: Fructose 6-phosphate (HMDB00124) [1]: 2,660,942 and 2,572,195 and 2,965,940 | Peak Height of metabolite intensity: Fumaric acid (HMDB00134) [1]: 8,464,455 and 9,727,776 and 11,821,440 | Peak Height of metabolite intensity: GDP-glucose (HMDB03351) [1]: 92,740 and 103,248 and 99,915 | Peak Height of metabolite intensity: Gluconic acid (HMDB00625) [1]: 37,957,970 and 52,856,170 and 64,673,460 | Peak Height of metabolite intensity: Glucosamine 6-phosphate (HMDB01254) [1]: 529,990 and 692,898 and 945,530 | Peak Height of metabolite intensity: Glucose 6-phosphate (HMDB01401) [1]: 2,103,241 and 2,833,469 and 3,624,968 | Peak Height of metabolite intensity: Glutathione (HMDB00125) [1]: 99,156,710 and 109,797,600 and 130,505,000 | Peak Height of metabolite intensity: Glycerol3-phosphate (HMDB00126) [1]: 758,556 and 825,062 and 1,025,018 | Peak Height of metabolite intensity: Glycerophosphocholine (HMDB00086) [1]: 347,562,900 and 361,214,700 and 419,624,900 | Peak Height of metabolite intensity: Glycine (HMDB00123) [1]: 45,296,030 and 53,615,700 and 58,796,920 | Peak Height of metabolite intensity: Guanosine (HMDB00133) [1]: 619,336 and 155,195 and 131,494 | Peak Height of metabolite intensity: Guanosine diphosphate (HMDB01201) [1]: 493,573 and 471,968 and 538,827 | Peak Height of metabolite intensity: Guanosine monophosphate (HMDB01397) [1]: 465,594 and 655,797 and 560,973 | Peak Height of metabolite intensity: Hippuric acid (HMDB00714) [1]: 47,961 and 38,230 and 36,149 | Peak Height of metabolite intensity: Hypotaurine (HMDB00965) [1]: 6,754,939 and 7,052,286 and 8,446,435 | Peak Height of metabolite intensity: Hypoxanthine (HMDB00157) [1]: 211,957 and 135,595 and 141,122 | Peak Height of metabolite intensity: Imidazolelactic acid (HMDB02320) [1]: 128,804 and 165,439 and 221,241 | Peak Height of metabolite intensity: Indolelactic acid (HMDB00671) [1]: 84,732 and 90,304 and 155,173 | Peak Height of metabolite intensity: Inosine (HMDB00195) [1]: 2,168,084 and 318,912 and 236,433 | Peak Height of metabolite intensity: Inosinic acid (HMDB00175) [1]: 178,233 and 246,521 and 243,587 | Peak Height of metabolite intensity: Kynurenic acid (HMDB00715) [1]: 51,692 and 41,122 and 61,792 | Peak Height of metabolite intensity: L-Acetylcarnitine (HMDB00201) [1]: 106,933,600 and 121,142,500 and 148,690,900 | Peak Height of metabolite intensity: L-Arginine (HMDB00517) [1]: 31,387,180 and 29,265,460 and 31,837,150 | Peak Height of metabolite intensity: L-Asparagine (HMDB00168) [1]: 21,992,250 and 21,453,690 and 27,389,900
